Source: the kinase profiling compilation of Christmann-Franck et al. (2016)

Columns and labels:
Assay in all cases: radiometric filter-binding kinase assay, Kinase HotSpot
Settings in all cases: compound 0.5 µM; ATP 10 µM
AKT2 (human) = AKT2 (human) (UniProt P31751)
AXL (human) = AXL (human) (UniProt P30530)
BRAF (human) = BRAF (human) (UniProt P15056)
CDK2 CCNE1 (human) = CDK2 CCNE1 (human) (UniProt P24941+P24864)
CDK6 CCND1 (human) = CDK6 CCND1 (human) (UniProt Q00534+P24385)
CLK2 (human) = CLK2 (human) (UniProt P49760)
CSNK1A1 (human) = CSNK1A1 (human) (UniProt P48729)
EGFR (human) = EGFR (human) (UniProt P00533)
EPHA6 (human) = EPHA6 (human) (UniProt Q9UF33)
Chain of EPHA6 (human) (Q9UF33 whole entry, looked up): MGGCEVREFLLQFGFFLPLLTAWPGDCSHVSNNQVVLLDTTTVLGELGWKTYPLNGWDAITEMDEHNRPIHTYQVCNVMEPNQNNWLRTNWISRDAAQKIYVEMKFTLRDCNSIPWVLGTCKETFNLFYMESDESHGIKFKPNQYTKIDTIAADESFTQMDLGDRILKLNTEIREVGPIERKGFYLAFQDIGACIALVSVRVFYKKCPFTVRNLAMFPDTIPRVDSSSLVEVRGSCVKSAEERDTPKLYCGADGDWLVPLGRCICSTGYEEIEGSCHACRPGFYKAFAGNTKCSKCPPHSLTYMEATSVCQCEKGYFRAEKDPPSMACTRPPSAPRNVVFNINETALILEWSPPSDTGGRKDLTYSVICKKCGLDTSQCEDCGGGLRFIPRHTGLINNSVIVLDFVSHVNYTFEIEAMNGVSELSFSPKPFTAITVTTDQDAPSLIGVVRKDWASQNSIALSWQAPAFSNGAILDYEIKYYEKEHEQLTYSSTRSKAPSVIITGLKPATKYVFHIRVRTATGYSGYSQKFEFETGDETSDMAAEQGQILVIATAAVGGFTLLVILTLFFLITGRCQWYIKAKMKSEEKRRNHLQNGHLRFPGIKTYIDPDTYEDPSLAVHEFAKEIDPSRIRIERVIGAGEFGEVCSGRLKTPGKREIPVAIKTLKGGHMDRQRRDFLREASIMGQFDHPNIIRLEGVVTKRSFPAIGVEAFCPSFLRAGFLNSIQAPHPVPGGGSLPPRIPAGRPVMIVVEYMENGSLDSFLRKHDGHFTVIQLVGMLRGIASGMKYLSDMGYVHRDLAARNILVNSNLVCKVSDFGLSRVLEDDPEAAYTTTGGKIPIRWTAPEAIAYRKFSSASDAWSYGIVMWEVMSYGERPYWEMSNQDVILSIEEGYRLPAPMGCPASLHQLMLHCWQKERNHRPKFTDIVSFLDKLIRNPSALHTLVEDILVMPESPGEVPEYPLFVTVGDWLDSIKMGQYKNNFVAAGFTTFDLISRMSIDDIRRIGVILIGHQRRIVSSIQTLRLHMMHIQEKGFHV

FER (human) = FER (human) (UniProt P16591)
IKBKE (human) = IKBKE (human) (UniProt Q14164)
LCK (human) = LCK (human) (UniProt P06239)
LRRK2 (human) = LRRK2 (human) (UniProt Q5S007)
Chain of LRRK2 (human) (Q5S007 whole entry, looked up): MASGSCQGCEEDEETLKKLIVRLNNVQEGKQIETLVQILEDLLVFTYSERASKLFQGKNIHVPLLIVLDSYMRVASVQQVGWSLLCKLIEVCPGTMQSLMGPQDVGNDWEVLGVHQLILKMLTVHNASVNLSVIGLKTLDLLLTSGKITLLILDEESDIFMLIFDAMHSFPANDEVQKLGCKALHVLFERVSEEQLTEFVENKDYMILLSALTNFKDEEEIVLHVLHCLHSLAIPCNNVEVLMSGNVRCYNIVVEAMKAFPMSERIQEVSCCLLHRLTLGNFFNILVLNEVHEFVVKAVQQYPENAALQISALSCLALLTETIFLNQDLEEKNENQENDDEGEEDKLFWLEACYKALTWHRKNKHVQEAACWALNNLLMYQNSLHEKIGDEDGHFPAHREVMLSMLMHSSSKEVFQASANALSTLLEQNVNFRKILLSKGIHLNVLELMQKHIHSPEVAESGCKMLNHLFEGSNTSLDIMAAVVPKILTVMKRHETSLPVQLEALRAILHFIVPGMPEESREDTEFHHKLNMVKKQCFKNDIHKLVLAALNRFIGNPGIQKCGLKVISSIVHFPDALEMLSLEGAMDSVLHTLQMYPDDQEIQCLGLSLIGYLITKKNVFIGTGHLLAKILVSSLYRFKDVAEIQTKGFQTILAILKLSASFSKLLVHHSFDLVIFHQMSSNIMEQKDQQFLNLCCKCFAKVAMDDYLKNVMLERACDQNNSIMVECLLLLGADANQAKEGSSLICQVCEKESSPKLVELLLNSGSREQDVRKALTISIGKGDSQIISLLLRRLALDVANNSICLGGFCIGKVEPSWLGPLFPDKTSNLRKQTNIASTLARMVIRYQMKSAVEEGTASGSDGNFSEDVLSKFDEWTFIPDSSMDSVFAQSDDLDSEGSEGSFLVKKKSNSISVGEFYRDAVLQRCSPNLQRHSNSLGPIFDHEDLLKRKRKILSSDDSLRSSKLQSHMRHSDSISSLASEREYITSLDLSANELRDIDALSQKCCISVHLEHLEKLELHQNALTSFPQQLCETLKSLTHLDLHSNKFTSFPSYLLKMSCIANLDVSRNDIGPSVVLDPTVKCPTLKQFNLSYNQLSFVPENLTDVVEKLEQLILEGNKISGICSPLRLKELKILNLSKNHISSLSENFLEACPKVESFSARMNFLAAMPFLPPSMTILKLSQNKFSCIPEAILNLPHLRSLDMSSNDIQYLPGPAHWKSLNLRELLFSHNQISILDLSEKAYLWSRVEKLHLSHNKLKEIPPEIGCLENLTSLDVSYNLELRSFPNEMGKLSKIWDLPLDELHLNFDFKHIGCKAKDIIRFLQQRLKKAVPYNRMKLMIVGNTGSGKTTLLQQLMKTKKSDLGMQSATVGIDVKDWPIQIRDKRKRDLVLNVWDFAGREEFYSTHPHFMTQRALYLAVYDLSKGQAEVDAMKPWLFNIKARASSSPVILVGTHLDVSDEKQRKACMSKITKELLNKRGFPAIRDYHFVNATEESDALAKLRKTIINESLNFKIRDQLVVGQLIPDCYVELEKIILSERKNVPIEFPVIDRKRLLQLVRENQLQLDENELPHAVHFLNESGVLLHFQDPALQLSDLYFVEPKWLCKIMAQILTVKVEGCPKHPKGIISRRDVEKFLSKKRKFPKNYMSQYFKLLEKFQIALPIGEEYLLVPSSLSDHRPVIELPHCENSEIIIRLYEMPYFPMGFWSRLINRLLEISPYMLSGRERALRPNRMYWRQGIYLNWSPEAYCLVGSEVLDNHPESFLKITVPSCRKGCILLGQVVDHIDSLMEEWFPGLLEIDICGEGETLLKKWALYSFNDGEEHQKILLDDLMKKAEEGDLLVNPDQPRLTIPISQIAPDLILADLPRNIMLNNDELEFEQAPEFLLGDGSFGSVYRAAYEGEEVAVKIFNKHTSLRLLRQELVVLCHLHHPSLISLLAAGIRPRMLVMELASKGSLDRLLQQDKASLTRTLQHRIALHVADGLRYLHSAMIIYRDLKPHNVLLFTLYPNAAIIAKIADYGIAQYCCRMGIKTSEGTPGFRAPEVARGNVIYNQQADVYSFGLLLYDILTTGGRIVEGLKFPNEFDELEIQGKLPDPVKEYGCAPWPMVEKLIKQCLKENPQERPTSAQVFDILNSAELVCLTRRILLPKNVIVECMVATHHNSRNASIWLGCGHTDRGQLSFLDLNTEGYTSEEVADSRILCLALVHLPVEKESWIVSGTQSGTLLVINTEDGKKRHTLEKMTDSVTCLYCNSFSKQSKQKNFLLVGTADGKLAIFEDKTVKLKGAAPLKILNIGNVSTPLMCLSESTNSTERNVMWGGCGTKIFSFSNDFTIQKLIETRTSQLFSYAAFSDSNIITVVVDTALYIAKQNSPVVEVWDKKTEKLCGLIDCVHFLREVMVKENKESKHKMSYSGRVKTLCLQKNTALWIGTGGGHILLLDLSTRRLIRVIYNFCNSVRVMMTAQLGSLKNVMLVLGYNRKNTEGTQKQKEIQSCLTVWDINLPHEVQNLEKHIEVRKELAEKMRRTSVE

MAP3K2 (human) = MAP3K2 (human) (UniProt Q9Y2U5)
MAP4K5 (human) = MAP4K5 (human) (UniProt Q9Y4K4)
MAPK3 (human) = MAPK3 (human) (UniProt P27361)
MAPKAPK5 (human) = MAPKAPK5 (human) (UniProt Q8IW41)
MARK3 (human) = MARK3 (human) (UniProt P27448)
MET (human) = MET (human) (UniProt P08581)
MST1R (human) = MST1R (human) (UniProt Q04912)
MYO3B (human) = MYO3B (human) (UniProt Q8WXR4)
NEK11 (human) = NEK11 (human) (UniProt Q8NG66)
PAK6 (human) = PAK6 (human) (UniProt Q9NQU5)
PAK7 (human) = PAK7 (human) (UniProt Q9P286)
PDPK1 (human) = PDPK1 (human) (UniProt O15530)
PHKG1 (human) = PHKG1 (human) (UniProt Q16816)
Chain of PHKG1 (human) (Q16816 whole entry, looked up): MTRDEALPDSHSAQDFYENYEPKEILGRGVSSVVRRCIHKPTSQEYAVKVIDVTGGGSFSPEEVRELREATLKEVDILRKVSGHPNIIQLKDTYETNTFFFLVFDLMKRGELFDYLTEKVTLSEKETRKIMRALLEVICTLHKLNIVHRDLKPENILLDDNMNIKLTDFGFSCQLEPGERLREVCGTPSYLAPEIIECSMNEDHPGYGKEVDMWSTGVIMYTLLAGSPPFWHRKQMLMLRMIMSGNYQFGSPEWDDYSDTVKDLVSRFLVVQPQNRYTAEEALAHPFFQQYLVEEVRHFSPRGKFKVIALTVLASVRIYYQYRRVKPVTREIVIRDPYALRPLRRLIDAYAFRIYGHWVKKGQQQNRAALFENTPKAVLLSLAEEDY

PRKACG (human) = PRKACG (human) (UniProt P22612)
PRKCZ (human) = PRKCZ (human) (UniProt Q05513)
RET (human) = RET (human) (UniProt P07949)
ROCK1 (human) = ROCK1 (human) (UniProt Q13464)
SIK2 (human) = SIK2 (human) (UniProt Q9H0K1)
SRPK1 (human) = SRPK1 (human) (UniProt Q96SB4)
Chain of SRPK1 (human) (Q96SB4 whole entry, looked up): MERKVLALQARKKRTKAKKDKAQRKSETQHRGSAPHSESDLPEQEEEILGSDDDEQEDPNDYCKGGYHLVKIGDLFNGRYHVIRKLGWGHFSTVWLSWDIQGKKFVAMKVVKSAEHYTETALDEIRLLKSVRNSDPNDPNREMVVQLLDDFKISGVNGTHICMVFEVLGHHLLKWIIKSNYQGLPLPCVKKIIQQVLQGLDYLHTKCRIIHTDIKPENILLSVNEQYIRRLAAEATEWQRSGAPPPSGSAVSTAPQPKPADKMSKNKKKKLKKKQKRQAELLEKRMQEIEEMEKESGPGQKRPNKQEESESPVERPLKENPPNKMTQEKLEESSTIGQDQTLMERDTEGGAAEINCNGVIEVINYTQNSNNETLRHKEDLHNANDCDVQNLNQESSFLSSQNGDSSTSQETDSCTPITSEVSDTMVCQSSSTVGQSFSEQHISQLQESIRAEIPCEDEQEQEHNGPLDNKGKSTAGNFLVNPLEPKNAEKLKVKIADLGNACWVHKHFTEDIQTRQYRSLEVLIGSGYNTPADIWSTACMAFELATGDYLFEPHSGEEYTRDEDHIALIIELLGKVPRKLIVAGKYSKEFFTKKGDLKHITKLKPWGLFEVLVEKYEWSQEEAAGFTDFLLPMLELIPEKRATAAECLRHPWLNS

STK10 (human) = STK10 (human) (UniProt O94804)
STK33 (human) = STK33 (human) (UniProt Q9BYT3)
STK38 (human) = STK38 (human) (UniProt Q15208)
Chain of STK38 (human) (Q15208 whole entry, looked up): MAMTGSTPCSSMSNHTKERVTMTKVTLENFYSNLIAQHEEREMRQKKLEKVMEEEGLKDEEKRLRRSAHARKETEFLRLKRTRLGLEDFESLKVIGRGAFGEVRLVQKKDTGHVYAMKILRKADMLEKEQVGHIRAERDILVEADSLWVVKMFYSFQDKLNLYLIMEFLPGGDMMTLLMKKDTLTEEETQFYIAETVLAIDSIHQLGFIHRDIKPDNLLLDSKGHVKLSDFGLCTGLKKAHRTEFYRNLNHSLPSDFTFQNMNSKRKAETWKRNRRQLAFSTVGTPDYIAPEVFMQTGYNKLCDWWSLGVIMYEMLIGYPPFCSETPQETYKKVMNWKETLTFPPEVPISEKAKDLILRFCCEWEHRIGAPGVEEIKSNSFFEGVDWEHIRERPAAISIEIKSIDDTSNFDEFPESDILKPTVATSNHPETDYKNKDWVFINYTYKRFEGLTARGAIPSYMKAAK

STK4 (human) = STK4 (human) (UniProt Q13043)
TBK1 (human) = TBK1 (human) (UniProt Q9UHD2)
TGFBR2 (human) = TGFBR2 (human) (UniProt P37173)
TLK2 (human) = TLK2 (human) (UniProt Q86UE8)
ULK1 (human) = ULK1 (human) (UniProt O75385)
ULK3 (human) = ULK3 (human) (UniProt Q6PHR2)
YES1 (human) = YES1 (human) (UniProt P07947)

Structure (SMILES): COc1cccc(-c2cc(=O)c3ccccc3o2)c1N
- residual activity (AKT2 (human)): 97.4%
- residual activity (AXL (human)): 127%
- residual activity (BRAF (human)): 93.6%
- residual activity (CDK2 CCNE1 (human)): 95.3%
- residual activity (CDK6 CCND1 (human)): 95.5%
- residual activity (CLK2 (human)): 103%
- residual activity (CSNK1A1 (human)): 95.6%
- residual activity (EGFR (human)): 81.2%
- residual activity (EPHA6 (human)): 81.2%
- residual activity (FER (human)): 97.6%
- residual activity (IKBKE (human)): 95.1%
- residual activity (LCK (human)): 99%
- residual activity (LRRK2 (human)): 101%
- residual activity (MAP3K2 (human)): 103%
- residual activity (MAP4K5 (human)): 91.1%
- residual activity (MAPK3 (human)): 102%
- residual activity (MAPKAPK5 (human)): 122%
- residual activity (MARK3 (human)): 86.7%
- residual activity (MET (human)): 112%
- residual activity (MST1R (human)): 93.4%
- residual activity (MYO3B (human)): 97.8%
- residual activity (NEK11 (human)): 92.9%
- residual activity (PAK6 (human)): 95.5%
- residual activity (PAK7 (human)): 99.7%
- residual activity (PDPK1 (human)): 98.3%
- residual activity (PHKG1 (human)): 92.9%
- residual activity (PRKACG (human)): 96%
- residual activity (PRKCZ (human)): 99.1%
- residual activity (RET (human)): 107%
- residual activity (ROCK1 (human)): 95.6%
- residual activity (SIK2 (human)): 102%
- residual activity (SRPK1 (human)): 93.4%
- residual activity (STK10 (human)): 90.4%
- residual activity (STK33 (human)): 98.2%
- residual activity (STK38 (human)): 97.4%
- residual activity (STK4 (human)): 92.1%
- residual activity (TBK1 (human)): 94.3%
- residual activity (TGFBR2 (human)): 115%
- residual activity (TLK2 (human)): 84.8%
- residual activity (ULK1 (human)): 104%
- residual activity (ULK3 (human)): 94.6%
- residual activity (YES1 (human)): 93.5%

Structure (SMILES): O=c1c(-c2ccc(F)cc2)c(-c2ccncc2)[nH]n1-c1ccc(Cl)cc1
- residual activity (AKT2 (human)): 97.8%
- residual activity (AXL (human)): 113%
- residual activity (CDK2 CCNE1 (human)): 89.1%
- residual activity (CDK6 CCND1 (human)): 92.3%
- residual activity (CLK2 (human)): 99%
- residual activity (CSNK1A1 (human)): 63.7%
- residual activity (EGFR (human)): 57.7%
- residual activity (EPHA6 (human)): 57%
- residual activity (FER (human)): 94.3%
- residual activity (IKBKE (human)): 98.3%
- residual activity (LCK (human)): 101%
- residual activity (LRRK2 (human)): 102%
- residual activity (MAP3K2 (human)): 98.9%
- residual activity (MAP4K5 (human)): 83.1%
- residual activity (MAPK3 (human)): 103%
- residual activity (MAPKAPK5 (human)): 99.7%
- residual activity (MARK3 (human)): 87.2%
- residual activity (MET (human)): 101%
- residual activity (MST1R (human)): 95%
- residual activity (MYO3B (human)): 90.7%
- residual activity (NEK11 (human)): 104%
- residual activity (PAK6 (human)): 73.5%
- residual activity (PAK7 (human)): 86.3%
- residual activity (PDPK1 (human)): 104%
- residual activity (PHKG1 (human)): 94.1%
- residual activity (PRKACG (human)): 91.9%
- residual activity (PRKCZ (human)): 99%
- residual activity (RET (human)): 99.6%
- residual activity (ROCK1 (human)): 109%
- residual activity (SIK2 (human)): 101%
- residual activity (SRPK1 (human)): 97.9%
- residual activity (STK10 (human)): 81.9%
- residual activity (STK33 (human)): 101%
- residual activity (STK38 (human)): 93.7%
- residual activity (STK4 (human)): 90%
- residual activity (TBK1 (human)): 112%
- residual activity (TGFBR2 (human)): 97.7%
- residual activity (TLK2 (human)): 109%
- residual activity (ULK1 (human)): 103%
- residual activity (ULK3 (human)): 94.3%
- residual activity (YES1 (human)): 85.1%

Structure (SMILES): CCc1nc(-c2ccc(OC)cc2)[nH]c1-c1ccncc1
- residual activity (AKT2 (human)): 100%
- residual activity (AXL (human)): 99.9%
- residual activity (BRAF (human)): 102%
- residual activity (CDK2 CCNE1 (human)): 93.7%
- residual activity (CDK6 CCND1 (human)): 101%
- residual activity (CLK2 (human)): 106%
- residual activity (CSNK1A1 (human)): 99.4%
- residual activity (EGFR (human)): 103%
- residual activity (EPHA6 (human)): 104%
- residual activity (FER (human)): 96.4%
- residual activity (IKBKE (human)): 99.8%
- residual activity (LRRK2 (human)): 96.7%
- residual activity (MAP3K2 (human)): 98.2%
- residual activity (MAP4K5 (human)): 106%
- residual activity (MAPK3 (human)): 99.9%
- residual activity (MAPKAPK5 (human)): 95.2%
- residual activity (MARK3 (human)): 101%
- residual activity (MET (human)): 97.7%
- residual activity (MST1R (human)): 101%
- residual activity (MYO3B (human)): 107%
- residual activity (NEK11 (human)): 77.4%
- residual activity (PAK6 (human)): 102%
- residual activity (PAK7 (human)): 101%
- residual activity (PDPK1 (human)): 96%
- residual activity (PHKG1 (human)): 97%
- residual activity (PRKACG (human)): 103%
- residual activity (PRKCZ (human)): 107%
- residual activity (RET (human)): 99.2%
- residual activity (ROCK1 (human)): 105%
- residual activity (SIK2 (human)): 88.3%
- residual activity (SRPK1 (human)): 106%
- residual activity (STK10 (human)): 96.8%
- residual activity (STK33 (human)): 101%
- residual activity (STK38 (human)): 102%
- residual activity (STK4 (human)): 106%
- residual activity (TBK1 (human)): 99.7%
- residual activity (TGFBR2 (human)): 140%
- residual activity (TLK2 (human)): 102%
- residual activity (ULK1 (human)): 84.5%
- residual activity (ULK3 (human)): 83.4%
- residual activity (YES1 (human)): 95.1%

Structure (SMILES): FC(F)(F)c1ccc(/C=C/c2nc(COc3ccc(CCCCn4ccnn4)cc3)co2)cc1
- residual activity (AKT2 (human)): 99.9%
- residual activity (AXL (human)): 101%
- residual activity (BRAF (human)): 94.3%
- residual activity (CDK2 CCNE1 (human)): 96.3%
- residual activity (CDK6 CCND1 (human)): 95.4%
- residual activity (CLK2 (human)): 89.6%
- residual activity (CSNK1A1 (human)): 98.4%
- residual activity (EGFR (human)): 97.7%
- residual activity (EPHA6 (human)): 99.3%
- residual activity (FER (human)): 102%
- residual activity (IKBKE (human)): 94.8%
- residual activity (LCK (human)): 92.1%
- residual activity (LRRK2 (human)): 94.8%
- residual activity (MAP3K2 (human)): 102%
- residual activity (MAP4K5 (human)): 96.5%
- residual activity (MAPK3 (human)): 100%
- residual activity (MAPKAPK5 (human)): 101%
- residual activity (MARK3 (human)): 96.6%
- residual activity (MET (human)): 95.1%
- residual activity (MST1R (human)): 104%
- residual activity (MYO3B (human)): 93.7%
- residual activity (NEK11 (human)): 97.6%
- residual activity (PAK6 (human)): 100%
- residual activity (PAK7 (human)): 89.4%
- residual activity (PDPK1 (human)): 104%
- residual activity (PHKG1 (human)): 92.9%
- residual activity (PRKACG (human)): 105%
- residual activity (PRKCZ (human)): 101%
- residual activity (RET (human)): 101%
- residual activity (ROCK1 (human)): 100%
- residual activity (SIK2 (human)): 103%
- residual activity (SRPK1 (human)): 98.1%
- residual activity (STK10 (human)): 92.6%
- residual activity (STK33 (human)): 93.7%
- residual activity (STK38 (human)): 102%
- residual activity (STK4 (human)): 97.5%
- residual activity (TBK1 (human)): 101%
- residual activity (TGFBR2 (human)): 103%
- residual activity (TLK2 (human)): 98.6%
- residual activity (ULK1 (human)): 87.2%
- residual activity (ULK3 (human)): 99.5%
- residual activity (YES1 (human)): 85%
